Literature values in patent US20110059177A1, “Cardioplegia Solution for Cardiac Surgery” (priority 2008, published 2011).

Assays:
[1] = system: common carotid artery IMT (intima-media thickness); settings: patients with coronary artery disease, 6 months

activity level relative to tetracycline (150 mg of minocycline vs 250 mg of tetracycline at 24-48 hours) [times]	serum levels relative to most other tetracyclines (result of long half-life)	SMILES	common carotid artery IMT (intima-media thickness) [1]	markers of inflammation [1]
		CCOC(=O)C1=C(C)NC(C)=C(C(=O)OCC)C1c1ccccc1/C=C/C(=O)OC(C)(C)C [Lacidipine]	significant reduction	decrease
16	2-4 times	CN(C)c1ccc(O)c2c1C[C@H]1C[C@H]3[C@H](N(C)C)C(O)=C(C(N)=O)C(=O)[C@@]3(O)C(O)=C1C2=O [Minocycline]		
